Structures can show the parent of a compound that is named as a salt.

As for `CCCCCCC(N)c1nc(-c2ccccc2OC)c[nH]1` (racemic) (as salt: hydrochloride) [Example 185, (R,S)-1-[4-(2-methoxyphenyl)-1H-imidazol-2-yl]heptylamine], the melting point was 238 to 240 °C. The same measure for `O=C(NCCc1nc(-c2ccc(-c3ccccc3)cc2)c[nH]1)OC1CCCC1` [Example 271, 4-[2-(2-{[(cyclopentyloxy)carbonyl]amino}ethyl)-1H-imidazol-4-yl]-1,1′-biphenyl]: 140.5 °C; for `Cn1cc(-c2ccccc2)nc1[C@@H](Cc1c[nH]c2ccccc12)NC(=O)OC(C)(C)C` [Example 148, tert-butyl (1R)-2-(1H-indol-3-yl)-1-(1-methyl-4-phenyl-1H-imidazol-2-yl)ethylcarbamate]: 96 to 100 °C. As to `Cn1cc(-c2ccccc2)nc1[C@H](N)Cc1c[nH]c2ccccc12` (as salt: hydrochloride) [Example 151, (1R)-2-(1H-indol-3-yl)-1-(1-methyl-4-phenyl-1H-imidazol-2-yl)ethanamine], the melting point fell in the range of 206 to 210 °C. The same measure for `CC(C)CCCOC(=O)NCCc1nc(-c2ccc(-c3ccccc3)cc2)c[nH]1` [Example 378, 4-methylpentyl 2-[4-(1,1′-biphenyl-4-yl)-1H-imidazol-2-yl]ethylcarbamate]: 128.3 °C. The same measure for `Brc1cccc(-c2c[nH]c([C@@H](NCC3CCCCC3)C3CCCCC3)n2)c1` [Example 289, (S)-1-[4-(3-bromophenyl)-1H-imidazol-2-yl]-1-cyclohexyl-N-(cyclohexylmethyl)methanamine]: 134.3 °C.

Consider `CCCCOC(=O)NCCc1nc(-c2ccc(-c3ccccc3Br)cc2)c[nH]1` [Example 456, butyl 2-[4-(2′-bromo-1,1′-biphenyl-4-yl)-1H-imidazol-2-yl]ethylcarbamate], for which the melting point was 109.6 °C. The same measure for `CC(C)N[C@H](c1nc(-c2ccc(F)cc2)c[nH]1)C1CCCCC1` [Example 261, N-{(S)-cyclohexyl[4-(4-fluorophenyl)-1H-imidazol-2-yl]methyl}-2-propanamine]: 210 to 212 °C; for `CC(C)CCCC(NC1CCCCC1)c1nc(-c2cccc(Br)c2)c[nH]1` (racemic) (as salt: hydrochloride) [Example 272, (R,S)-N-{1-[4-(3-bromophenyl)-1H-imidazol-2-yl]-5-methylhexyl}-cyclohexanamine]: 216.7 °C; for `CCCCCCC(N)c1nc(-c2ccc(F)cc2)c[nH]1` (racemic) (as salt: hydrochloride) [Example 220, (R,S)-1-[4-(4-fluorophenyl)-1H-imidazol-2-yl]-1-heptanamine]: 148 to 150 °C. The compound `CCCCCCC(N)c1nc(-c2cccc(Br)c2)c[nH]1` (racemic) (as salt: hydrochloride) [Example 191, (R,S)-1-[4-(3-bromophenyl)-1H-imidazol-2-yl]-1-heptanamine] yielded a melting point of 230 to 231 °C.

Compound `CC(C)CCCC(NCc1ccccc1)c1nc(-c2cccc(Br)c2)c[nH]1` (racemic) [Example 235, (R,S)-N-benzyl-1-[4-(3-bromophenyl)-1H-imidazol-2-yl]-5-methyl-1-hexanamine] had a melting point of 92 to 94 °C. The same measure for `Fc1ccc(-c2c[nH]c(C(NC3CCC3)C3CCCC3)n2)cc1` (racemic) [Example 274, (R,S)-N-{cyclopentyl[4-(4-fluorophenyl)-1H-imidazol-2-yl]methyl}cyclobutanamine]: 146 to 148 °C; for `c1ccc(CNC2(c3nc(-c4ccccc4)c[nH]3)CCCCC2)cc1` [Example 123, N-benzyl-1-(4-phenyl-1H-imidazol-2-yl)cyclohexanamine]: 114 to 116 °C. The same measure for `N[C@H](CC1CCCCC1)c1nc(-c2ccc(-c3ccccc3)cc2)c[nH]1` (as salt: hydrochloride) [Example 154]: 178 to 180 °C; for `Cc1[nH]c([C@@H](Cc2c[nH]c3ccccc23)NCc2ccccc2)nc1-c1ccccc1` [Example 95, (1R)-N-benzyl-2-(1H-indol-3-yl)-1-(5-methyl-4-phenyl-1H-imidazol-2-yl)ethanamine]: 120 to 122 °C. In turn, `CCCCCCC(NC1CCCCC1)c1nc(-c2ccc(-c3ccccc3)cc2)c[nH]1` (racemic) (as salt: hydrochloride) [Example 252, (R,S)-N-[1-(4-[1,1′-biphenyl]-4-yl-1H-imidazol-2-yl)heptyl]-cyclohexanamine] gave a melting point of 168 to 170 °C. The same measure for `CCCCOC(=O)NCCc1nc(-c2ccc(-c3ccccc3F)cc2)c[nH]1` [Example 396, butyl 2-[4-(2′-fluoro-1,1′-biphenyl-4-yl)-1H-imidazol-2-yl]ethylcarbamate]: 113.8 °C; for `CCC[C@@H](NC(=O)OC(C)(C)C)c1nc(-c2ccccc2)c[nH]1` [Example 207, tert-butyl (1R)-1-(4-phenyl-1H-imidazol-2-yl)butylcarbamate]: 156 to 158 °C.

On to `CCCCOC(=O)NCCc1nc(-c2ccc(-c3cccc([N+](=O)[O-])c3)cc2)c[nH]1` [Example 459, butyl 2-[4-(3′-nitro-1,1′-biphenyl-4-yl)-1H-imidazol-2-yl]ethylcarbamate], for which the melting point lay in the range of 100.5 to 101.5 °C.

As to `CC(C)C[C@H](N)c1nc(-c2ccccc2)c[nH]1` (as salt: hydrochloride) [Example 56, (1S)-3-methyl-1-(4-phenyl-1H-imidazol-2-yl)-1-butanamine], the melting point fell in the range of 150 to 152 °C. The same measure for `O=C(NCCc1nc(-c2ccc(N3CCCC3)cc2)c[nH]1)OCc1ccccc1` [Example 390, benzyl 2-[4-(4-pyrrolidin-1-ylphenyl)-1H-imidazol-2-yl]ethylcarbamate]: 122.4 °C; for `CC(C)(C)c1cn(Cc2ccccc2)c([C@@H](Cc2c[nH]c3ccccc23)NCc2ccccc2)n1` [Example 39, (1R)-N-benzyl-1-(1-benzyl-4-tert-butyl-1H-imidazol-2-yl)-2-(1H-indol-3-yl)ethanamine]: 60 to 62 °C. The same measure for `NCCCc1nc(-c2ccc(-c3ccccc3)cc2)c[nH]1` (as salt: hydrochloride) [Example 179, 3-(4-[1,1′-biphenyl]-4-yl-1H-imidazol-2-yl)-1-propanamine]: > 260 °C. As to `CCCCCCC(NCC1CCCCC1)c1nc(-c2ccccc2)c[nH]1` (racemic) (as salt: hydrochloride) [Example 263, (R,S) N-(cyclohexylmethyl)-1-(4-phenyl-1H-imidazol-2-yl)-1-heptanamine], the melting point fell in the range of 142 to 144 °C. `CC(C)(C)c1ccc(-c2c[nH]c(CCNC(=O)OCC3CCCCC3)n2)cc1` [Example 302, cyclohexylmethyl 2-[4-(4-tert-butylphenyl)-1H-imidazol-2-yl]ethylcarbamate] came in with a melting point of 104 to 106 °C.

Consider `N[C@H](Cc1c[nH]c2ccccc12)c1nc(-c2ccccc2)c(-c2ccccc2)[nH]1` (as salt: hydrochloride), for which the melting point is > 260 °C. In turn, `c1ccc(CNC(c2ccccc2)c2nc(-c3ccccc3)c[nH]2)cc1` (racemic) [Example 133, (R,S)-N-benzyl(phenyl)(4-phenyl-1H-imidazol-2-yl)methanamine] showed a melting point of 144 to 146 °C.

The values above are taken from patent publication US7291641B2, “Derivatives of heterocycles with 5 members, their preparation and their use as medicaments” (Societe de Conseils de Recherches et d'Applications …, priority 1999, dated 2007).
